Test results reported in BindingDB's records for doi:10.1016/j.bmcl.2017.03.037 (Rigel Pharmaceuticals, 2017).

Assay: Induction of nuclear translocation of human GFP-tagged NFATc1 expressed in virus infected primary human skeletal muscle myoblasts after 3 hrs by DAPI staining based assay

| EC50 [µM] | SMILES |
| --- | --- |
| 6.9 | COCCn1cc(-c2ccncc2)c2ccncc21 |
| 7.58 | Fc1ccc(Cn2cc(-c3ccncc3)c3ccncc32)cc1 |
| 2.21 | Cn1cc(-c2ccncc2)c2ccncc21 |
| 4.8 | Nc1nccc(-c2c[nH]c3cnccc23)n1 |
| 2.98 | c1cc(-c2c[nH]c3cnccc23)ccn1 |
| 1.59 | c1cc(-c2cn(CCC3CC3)c3cnccc23)ccn1 |
| 9.8 | COc1cccc2c(-c3ccnc(N)n3)c[nH]c12 |
| 6.96 | c1cc(-c2cn(CCCN3CCOCC3)c3cnccc23)ccn1 |
| 5.31 | Clc1cnccc1-c1c[nH]c2cnccc12 |
| 21.7 | N#Cc1cccc2c(-c3ccnc(N)n3)c[nH]c12 |
| 20.8 | Cc1cc(-c2c[nH]c3cnccc23)ccn1 |
| 43 | c1ccc2c(-c3c[nH]c4cnccc34)ccnc2c1 |
| 4.85 | Fc1cc(-c2c[nH]c3cnccc23)ccn1 |
| 0.31 | CC(C)n1cc(-c2ccncc2)c2ccncc21 |
